The first data set in a line: RP, 50 × 0.5 mm, 2.7 µm, 35 °C, 0.01 mL/min, estimated dead time 0.62 min; A: water + 0.1% formic acid, pH 3; B: acetonitrile + 0.1% formic acid, pH 3; gradient (min/%B) 0/5 12/95 14/95 16/5. As to conditions: stereoisomer not certain.
For the compound `O=C(O)CCc1ccc(O)cc1` [Phloretic acid], the LC retention time was 3.41 min.
Take `COc1ccc(C2CC(=O)c3c(O)cc(O)cc3O2)cc1O` (stereo not given) [Hesperetin]: the LC retention time was 6.17 min.
For `COc1cc(C=CC(=O)CC(=O)C=Cc2ccc(O)c(OC)c2)ccc1O` [Curcumin], the LC retention time is 7.99 min.

A further data set can be described thus: RP, Agilent ZORBAX RRHD Eclipse Plus C18, 50 × 2.1 mm, 1.8 µm, 30 °C, 0.4 mL/min, estimated dead time 0.28 min; A: water + 0.1% formic acid, pH 3; B: acetonitrile + 0.1% formic acid, pH 3; gradient (min/%B) 0/1 5/10 8/25 9.1/99 10/99 12/99. As to conditions: stereoisomer not certain.
`O=C(O)C1OC(Oc2c(-c3ccc(O)cc3)oc3cc(O)cc(O)c3c2=O)C(O)C(O)C1O` (stereo not given) [Kaempferol-3-O-glucuronide]: the LC retention time is 8.79 min.
Same read-out and setting: as for `O=C(O)CCc1ccc(O)c(O)c1` [Dihydrocaffeic acid], the figure is 2.11 min.
Still for that read-out and setting: as for `O=C(O)CCc1ccc(O)cc1` [Phloretic acid], the figure is 6.26 min.
For `COc1ccc(C2CC(=O)c3c(O)cc(O)cc3O2)cc1O` (stereo not given) [Hesperetin], the LC retention time is 9.29 min.

A further data set is described as follows: RP, Agilent ZORBAX Eclipse XDB-C18, 100 × 2.1 mm, 1.8 µm, 50 °C, 0.4 mL/min, estimated dead time 0.55 min; A: water + 0.1% formic acid, pH 3; B: methanol + 0.1% formic acid, pH 3; gradient (min/%B) 0/2 10/100 14.5/100 14.51/2 16.5/2. The note with it: stereoisomer not certain.
On to `O=c1cc(-c2ccc(O)cc2)oc2cc(OC3OC(CO)C(O)C(O)C3O)cc(O)c12` (stereo not given) [Apigenin 7-O-glucoside], for which the LC retention time is 5.5 min.
On the same count and under the same terms, under `O=C(O)Cc1ccc(O)cc1` [4-Hydroxyphenylacetic acid] stands 3.26 min; under `O=C(O)C1OC(Oc2c(-c3ccc(O)cc3)oc3cc(O)cc(O)c3c2=O)C(O)C(O)C1O` (stereo not given) [Kaempferol-3-O-glucuronide], 5.52 min.
Same read-out and setting: as for `O=C(O)CCc1ccc(O)c(O)c1` [Dihydrocaffeic acid], the figure is 3.33 min.
Same read-out and setting: under `O=C(O)CCc1ccc(O)cc1` [Phloretic acid] stands 4.09 min; under `COc1ccc(C2CC(=O)c3c(O)cc(O)cc3O2)cc1O` (stereo not given) [Hesperetin], 6.64 min.
`COc1cc(C=CC(=O)CC(=O)C=Cc2ccc(O)c(OC)c2)ccc1O` [Curcumin]: the LC retention time is 8.13 min.

The next data set in a line: RP, Waters ACQUITY UPLC BEH C18, 100 × 2.1 mm, 1.7 µm, 65 °C, 0.4 mL/min, estimated dead time 0.55 min; A: water + 0.1% formic acid, pH 3; B: 80% acetonitrile + 20% acetone + 0.1% formic acid, pH 3; gradient (min/%B) 0/0 5/100 5.5/0 6/0. As to conditions: stereoisomer not certain.
On to `O=C(O)Cc1ccc(O)cc1` [4-Hydroxyphenylacetic acid], for which the LC retention time was 1.76 min.
Still for that read-out and setting: under `O=C(O)CCc1ccc(O)c(O)c1` [Dihydrocaffeic acid] stands 1.69 min; under `O=C(O)CCc1ccc(O)cc1` [Phloretic acid], 2.09 min; under `COc1ccc(C2CC(=O)c3c(O)cc(O)cc3O2)cc1O` (stereo not given) [Hesperetin], 2.93 min.

The next data set in a line: RP, Waters ACQUITY UPLC BEH Shield RP18, 150 × 2.1 mm, 1.7 µm, 40 °C, 0.4 mL/min, estimated dead time 0.83 min; A: water + 0.1% formic acid, pH 3; B: acetonitrile + 0.1% formic acid, pH 3; gradient (min/%B) 0/0 30/50 31/100 37/100 37.1/0. As to conditions: stereoisomer not certain.
In the case of `O=c1cc(-c2ccc(O)cc2)oc2cc(OC3OC(CO)C(O)C(O)C3O)cc(O)c12` (stereo not given) [Apigenin 7-O-glucoside], the LC retention time is 14.3 min.
On the same count and under the same terms, as for `O=C(O)Cc1ccc(O)cc1` [4-Hydroxyphenylacetic acid], the figure is 5.41 min.
As for `O=C(O)C1OC(Oc2c(-c3ccc(O)cc3)oc3cc(O)cc(O)c3c2=O)C(O)C(O)C1O` (stereo not given) [Kaempferol-3-O-glucuronide], the LC retention time is 15.2 min.
Turning to `O=C(O)CCc1ccc(O)c(O)c1` [Dihydrocaffeic acid], the LC retention time was 5.6 min.
As to `O=C(O)CCc1ccc(O)cc1` [Phloretic acid], the LC retention time is 6.46 min.
The same measure, in the same setting: under `COc1ccc(C2CC(=O)c3c(O)cc(O)cc3O2)cc1O` (stereo not given) [Hesperetin] stands 21.2 min; under `COc1cc(C=CC(=O)CC(=O)C=Cc2ccc(O)c(OC)c2)ccc1O` [Curcumin], 13 min.

Another data set in a line: RP, Agilent InfinityLab Poroshell 120 EC-C18, 100 × 3 mm, 2.7 µm, 25 °C, 0.4 mL/min, estimated dead time 1.1 min; A: water + 0.1% formic acid, pH 3; B: acetonitrile + 0.1% formic acid, pH 3; gradient (min/%B) 0/5 10/25 20/40 24/90 25/90 26/5 30/5. The note with it: stereoisomer not certain.
In the case of `O=c1cc(-c2ccc(O)cc2)oc2cc(OC3OC(CO)C(O)C(O)C3O)cc(O)c12` (stereo not given) [Apigenin 7-O-glucoside], the LC retention time was 10.7 min.
Still for that read-out and setting: as for `O=C(O)Cc1ccc(O)cc1` [4-Hydroxyphenylacetic acid], the figure is 6.13 min; as for `O=C(O)C1OC(Oc2c(-c3ccc(O)cc3)oc3cc(O)cc(O)c3c2=O)C(O)C(O)C1O` (stereo not given) [Kaempferol-3-O-glucuronide], 10.5 min.
On to `O=C(O)CCc1ccc(O)c(O)c1` [Dihydrocaffeic acid], for which the LC retention time was 6.04 min.
On the same count and under the same terms, as for `O=C(O)CCc1ccc(O)cc1` [Phloretic acid], the figure is 7.93 min.
Turning to `COc1ccc(C2CC(=O)c3c(O)cc(O)cc3O2)cc1O` (stereo not given) [Hesperetin], the LC retention time was 17.4 min.
On to `COc1cc(C=CC(=O)CC(=O)C=Cc2ccc(O)c(OC)c2)ccc1O` [Curcumin], for which the LC retention time was 22.9 min.

The nature of a further data set: RP, Phenomenex Luna Omega Polar C18, 100 × 2.1 mm, 1.6 µm, 40 °C, 0.5 mL/min, estimated dead time 0.44 min; A: water + 0.1% formic acid + 10 mM ammonium formate; B: acetonitrile; gradient (min/%B) 0/5 8/20 10/100 12/100 12.1/5 14/5. As to conditions: stereoisomer not certain.
Consider `O=c1cc(-c2ccc(O)cc2)oc2cc(OC3OC(CO)C(O)C(O)C3O)cc(O)c12` (stereo not given) [Apigenin 7-O-glucoside], for which the LC retention time was 9.12 min.
Regarding `O=C(O)Cc1ccc(O)cc1` [4-Hydroxyphenylacetic acid], the LC retention time is 3.36 min.
Still for that read-out and setting: as for `O=C(O)C1OC(Oc2c(-c3ccc(O)cc3)oc3cc(O)cc(O)c3c2=O)C(O)C(O)C1O` (stereo not given) [Kaempferol-3-O-glucuronide], the figure is 8.58 min; as for `O=C(O)CCc1ccc(O)c(O)c1` [Dihydrocaffeic acid], 3.46 min; as for `O=C(O)CCc1ccc(O)cc1` [Phloretic acid], 5.01 min.
On the same count and under the same terms, as for `COc1ccc(C2CC(=O)c3c(O)cc(O)cc3O2)cc1O` (stereo not given) [Hesperetin], the figure is 9.67 min; as for `COc1cc(C=CC(=O)CC(=O)C=Cc2ccc(O)c(OC)c2)ccc1O` [Curcumin], 10.1 min.

A short description of the next data set: RP, Waters ACQUITY UPLC HSS T3, 100 × 2.1 mm, 1.8 µm, 30 °C, 0.4 mL/min, estimated dead time 0.55 min; A: water + 0.1% formic acid, pH 3; B: acetonitrile + 0.1% formic acid, pH 3; gradient (min/%B) 0/0 2/0 15/100 22/100 22.1/0 26/0. As to conditions: stereoisomer not certain.
Turning to `O=c1cc(-c2ccc(O)cc2)oc2cc(OC3OC(CO)C(O)C(O)C3O)cc(O)c12` (stereo not given) [Apigenin 7-O-glucoside], the LC retention time is 9.6 min.
Same read-out and setting: under `O=C(O)Cc1ccc(O)cc1` [4-Hydroxyphenylacetic acid] stands 8.37 min; under `O=C(O)C1OC(Oc2c(-c3ccc(O)cc3)oc3cc(O)cc(O)c3c2=O)C(O)C(O)C1O` (stereo not given) [Kaempferol-3-O-glucuronide], 9.51 min.
Still for that read-out and setting: under `O=C(O)CCc1ccc(O)c(O)c1` [Dihydrocaffeic acid] stands 8.3 min; under `O=C(O)CCc1ccc(O)cc1` [Phloretic acid], 9.17 min.
On the same count and under the same terms, as for `COc1ccc(C2CC(=O)c3c(O)cc(O)cc3O2)cc1O` (stereo not given) [Hesperetin], the figure is 11.7 min; as for `COc1cc(C=CC(=O)CC(=O)C=Cc2ccc(O)c(OC)c2)ccc1O` [Curcumin], 13.6 min.

The nature of the next data set: RP, Phenomenex Synergi Hydro-RP, 250 × 2 mm, 4 µm, 25 °C, 0.2 mL/min, estimated dead time 2.5 min; A: water + 0.1% formic acid, pH 3; B: acetonitrile + 0.1% formic acid, pH 3; gradient (min/%B) 0/0.5 7/0.5 12/12.5 25/16.3 47/35 48/65 50/65 50.1/0.5. The note with it: stereoisomer not certain.
On to `O=C(O)Cc1ccc(O)cc1` [4-Hydroxyphenylacetic acid], for which the LC retention time was 20.4 min.
Take `O=C(O)CCc1ccc(O)c(O)c1` [Dihydrocaffeic acid]: the LC retention time was 20.1 min.
`O=C(O)CCc1ccc(O)cc1` [Phloretic acid]: the LC retention time is 26 min.
Same read-out and setting: as for `COc1ccc(C2CC(=O)c3c(O)cc(O)cc3O2)cc1O` (stereo not given) [Hesperetin], the figure is 51.9 min.
